pIC50: −log10 of the molar value. Where two headings read alike, the source gives them in different places.
Tests used:
Test in all cases: MTT cytotoxicity assay, 48 h, alone and in combination (IC50 and Combination Index)
Type in all cases: cell-based
HT-29 cell line = conditions: Homo sapiens
KB cell line = system: KB cell line
Method: A study was performed to determine the effect of the concentration of the recombinant lectin represented by SEQ ID NO: 1 on the IC50 of5-FU for cytotoxicity in KB cells.
Similarly another study was performed for Cisplatin in combination with the recombinant lectin of SEQ ID NO: 1.
Similarly another set of cells were treated with Cisplatin(0.1 μM to 1.5 μM)in combination with SEQ ID NO: 1(5.0 μg/mL-90 μg/mL).

PANC-1 cell line = conditions: Homo sapiens
Method: The cytotoxic effect on each combination was determined by MTT assay.
(§1) Combination Index (CI) values were determined for each drug concentration combination. The CI values were calculated based on the IC50 values using the formula as given in below.

MDA-MB-231 cell line = conditions: read-out: IC50 of Carboplatin
Method: (§2) The cell were kept in contact with the recombinant lectin of SEQ ID NO: 1 and the chemotherapy agent for 48 h and the cytotoxic effect (percentage cytotoxicity) was measured. The cytotoxic effect was determined by well-known colorimetric MTT assay (Mossman, T. 1983 Rapid colorimetric assay for cellular growth and survival: application to proliferation and cytotoxicity assays Journal of Immunological Methods, volume 65, pages 55-63) for assessing cell metabolic activity.
(§3) Based on percentage cytotoxicity data, IC50 values were determined using the software GraphPad Prism version 4.01.
as §1
A study was performed to determine the effect of the concentration of the recombinant lectin represented by SEQ ID NO: 1 on the IC50 of Paclitaxel for cytotoxicity in MDA-MB-231 cells. Conversely the effect of the concentration of Paclitaxel on the IC50 of the recombinant lectin represented by SEQ ID NO: 1.
Similarly another study was performed for Carboplatin in combination with the recombinant lectin of SEQ ID NO: 1.
In a further study, MDA-MB-231 cells were treated with Paclitaxel (0.001 nM-10 nM) in combination with SEQ ID NO: 1(2.5 μg/mL-80 μg/mL) for 48 h. Similarly another set of cells were treated with Carboplatin (10 μM-1000 μM) in combination with SEQ ID NO: 1 (2.5 μg/mL-80 μg/mL).

PA-1 cell line = conditions: read-out: IC50 of Cisplatin
Method: In a further study, PA-1 cells were treated with Cisplatin(0.01 μM-5 μM) in combination with SEQ ID NO: 1(1 μg/mL-20 μg/mL) for 48 h. Similarly another set of cells were treated with Paclitaxel (0.01 nM-5 nM) in combination with SEQ ID NO: 1 (1 μg/mL-20 μg/mL).

T24 cell line = conditions: for pIC50: read-out: IC50 of Cisplatin
Method: as §2, §3, §1
A study was performed to determine the effect of the concentration of the recombinant lectin represented by SEQ ID NO: 1 on the IC50 of Cisplatin for cytotoxicity in T24 cells. Conversely the effect of the concentration of Cisplatin on the IC50 of the recombinant lectin represented by SEQ ID NO: 1.
Similarly another study was performed for Gemcitabine in combination with the recombinant lectin of SEQ ID NO: 1.
This was performed using the same techniques as in Example 1-1.
In a further study, T24 cells were treated with Cisplatin (1 μM-500 μM) in combination with SEQ ID NO: 1(2.5 μg/mL-80 μg/mL) for 48 h. Similarly another set of cells were treated with Gemcitabine (1 μM-300 μM) in combination with SEQ ID NO: 1 (2.5 μg/mL-80 μg/mL). Combination Index values were determined for each drug combination and resultant antagonistic, additive or synergistic effect was determined, as described in Example 1-2.

SMILES: O=c1[nH]cc(F)c(=O)[nH]1 [5-FU, 5-Fluorouracil, reference compound]
- pIC50 (HT-29 cell line; HT-29, read-out: IC50 of 5-FU, SEQ ID NO: 1 at 0 μg/mL): 3.86
- pIC50 (HT-29 cell line; HT-29, read-out: IC50 of 5-FU, SEQ ID NO: 1 at 1 μg/mL): 3.76
- pIC50 (HT-29 cell line; HT-29, read-out: IC50 of 5-FU, SEQ ID NO: 1 at 5 μg/mL): 4.59
- pIC50 (HT-29 cell line; HT-29, read-out: IC50 of 5-FU, SEQ ID NO: 1 at 10 μg/mL): 5.35
- pIC50 (HT-29 cell line; HT-29, read-out: IC50 of 5-FU, SEQ ID NO: 1 at 20 μg/mL): 6.55
- pIC50 (HT-29 cell line; HT-29, read-out: IC50 of 5-FU, SEQ ID NO: 1 at 40 μg/mL): 5.91
- pIC50 (HT-29 cell line; HT-29, read-out: IC50 of 5-FU, SEQ ID NO: 1 at 80 μg/mL): 5.31
- Conc. of other therapeutic agents showing synergistic effect (KB cell line; 5-FU with SEQ ID NO: 1, paired with SEQ ID NO: 1 conc.): 0.01 to 5 µM
- pIC50 (KB cell line; Homo sapiens, KB, read-out: IC50 of 5-FU, SEQ ID NO: 1 at 0 μg/mL): 7.82
- pIC50 (KB cell line; Homo sapiens, KB, read-out: IC50 of 5-FU, SEQ ID NO: 1 at 5 μg/mL): 10.00
- pIC50 (KB cell line; Homo sapiens, KB, read-out: IC50 of 5-FU, SEQ ID NO: 1 at 10 μg/mL): 11.27
- pIC50 (KB cell line; Homo sapiens, KB, read-out: IC50 of 5-FU, SEQ ID NO: 1 at 20 μg/mL): 10.87
- pIC50 (KB cell line; Homo sapiens, KB, read-out: IC50 of 5-FU, SEQ ID NO: 1 at 30 μg/mL): 11.92
- pIC50 (PANC-1 cell line; PANC-1, read-out: IC50 of 5-FU, SEQ ID NO: 1 at 0 μg/mL): 4.06
- pIC50 (PANC-1 cell line; PANC-1, read-out: IC50 of 5-FU, SEQ ID NO: 1 at 5 μg/mL): 5.85
- pIC50 (PANC-1 cell line; PANC-1, read-out: IC50 of 5-FU, SEQ ID NO: 1 at 10 μg/mL): 5.90
- pIC50 (PANC-1 cell line; PANC-1, read-out: IC50 of 5-FU, SEQ ID NO: 1 at 20 μg/mL): 6.06
- pIC50 (PANC-1 cell line; PANC-1, read-out: IC50 of 5-FU, SEQ ID NO: 1 at 40 μg/mL): 5.07
- pIC50 (PANC-1 cell line; PANC-1, read-out: IC50 of 5-FU, SEQ ID NO: 1 at 80 μg/mL): 6.14
- pIC50 (PANC-1 cell line; PANC-1, read-out: IC50 of 5-FU, SEQ ID NO: 1 at […]): 3.53

SMILES: N.N.O=C([O-])C1(C(=O)[O-])CCC1.[Pt+2] [Carboplatin, reference compound]
- pIC50 (MDA-MB-231 cell line; SEQ ID NO: 1 at 0 μg/mL): 3.32
- pIC50 (MDA-MB-231 cell line; SEQ ID NO: 1 at 5 μg/mL): 5.40
- pIC50 (MDA-MB-231 cell line; SEQ ID NO: 1 at 10 μg/mL): 5.31
- pIC50 (MDA-MB-231 cell line; SEQ ID NO: 1 at 20 μg/mL): 5.07
- pIC50 (MDA-MB-231 cell line; SEQ ID NO: 1 at 40 μg/mL): 5.85
- pIC50 (MDA-MB-231 cell line; SEQ ID NO: 1 at 80 μg/mL): 5.23
- pIC50 (MDA-MB-231 cell line; SEQ ID NO: 1 at […]): 3.65

SMILES: N.N.[Cl][Pt][Cl] [Cisplatin, reference compound]
- pIC50 (KB cell line; SEQ ID NO: 1 at 0 μg/mL, read-out: IC50 of Cisplatin): 6.14
- pIC50 (KB cell line; SEQ ID NO: 1 at 5 μg/mL, read-out: IC50 of Cisplatin): 6.43
- pIC50 (KB cell line; SEQ ID NO: 1 at 10 μg/mL, read-out: IC50 of Cisplatin): 6.57
- pIC50 (KB cell line; SEQ ID NO: 1 at 20 μg/mL, read-out: IC50 of Cisplatin): 6.87
- pIC50 (KB cell line; SEQ ID NO: 1 at 30 μg/mL, read-out: IC50 of Cisplatin): 7.18
- pIC50 (KB cell line; SEQ ID NO: 1 at 40 μg/mL, read-out: IC50 of Cisplatin): 8.15
- pIC50 (KB cell line; SEQ ID NO: 1 at 90 μg/mL, read-out: IC50 of Cisplatin): 8.00
- pIC50 (PA-1 cell line; SEQ ID NO: 1 at 1 μg/mL): 6.15
- pIC50 (PA-1 cell line; SEQ ID NO: 1 at 5 μg/mL): 7.03
- pIC50 (PA-1 cell line; SEQ ID NO: 1 at 10 μg/mL): 8.38
- pIC50 (PA-1 cell line; SEQ ID NO: 1 at 15 μg/mL): 9.30
- pIC50 (PA-1 cell line; SEQ ID NO: 1 at 20 μg/mL): 10.00
- pIC50 (PA-1 cell line; SEQ ID NO: 1 at […]): 6.50
- Conc. of other therapeutic agents showing synergistic effect (T24 cell line; Cisplatin with SEQ ID NO: 1, paired with SEQ ID NO: 1 conc.): 1 to 500 µM
- pIC50 (T24 cell line; SEQ ID NO: 1 at 0 μg/mL): 4.41
- pIC50 (T24 cell line; SEQ ID NO: 1 at 5 μg/mL): 5.42
- pIC50 (T24 cell line; SEQ ID NO: 1 at 10 μg/mL): 7.01
- pIC50 (T24 cell line; SEQ ID NO: 1 at 20 μg/mL): 7.46
- pIC50 (T24 cell line; SEQ ID NO: 1 at 40 μg/mL): 7.08
- pIC50 (T24 cell line; SEQ ID NO: 1 at 80 μg/mL): 7.87
- pIC50 (T24 cell line; SEQ ID NO: 1 at […]): 4.64

Source: patent US20220257704A1, “COMBINATION OF CHEMOTHERAPY WITH RECOMBINANT S. ROLFSII LECTIN” (Unichem Laboratories Ltd, priority 2018, published 2022)
